Data published in patent publication US6355428B1, “Nucleic acid ligand interaction assays” (Genelabs Technologies, Inc., priority 1998, dated 2002).

Assays:
[1] = tested on: A/T rich indicator duplex 5′-CTTTATTATTTT-3′ (SEQ ID NO: 2 and complement) versus competitor oligonucleotides; assay: Fluorescence quenching competition assay with unlabeled competitor duplexes; assay type: binding; conditions: for sequence preference from competitor oligos of Table III (FIG. 6): 0.4 μM drug, 0.4 μM unlabeled duplex competitor; for 5 bp A/T site bound most strongly / preferred (FIGS. 11, 12) / discrimination among 5 bp A/T binding sites (FIGS. 11, 12): 5 bp A+T site competitors, Table VI
Excerpt: Direct assays, as described above, are useful for first level screening of ligand-oligonucleotide binding, e.g. preference for DNA vs. RNA, or A/T vs. C/G rich sequences. In a “next-stage” assay, termed herein a competition or competitive assay, a binding oligonucleotide for a particular ligand, such as determined from direct assays, is used as an “indicator” for competitive studies, which give a further level of detail about ligand binding preferences. A competition experiment starts with first and second indicator oligonucleotides, as described above, containing, respectively, a first group effective to produce a detectable signal, and a second group effective to alter this signal. At the beginning of the assay, the ligand is bound to a duplex of the sequences. Again, experimental conditions of temperature, salt content, etc. are preferably adjusted such that, in the absence of the ligand, the oligonucleotides would exist primarily in single-stranded form. As noted above, the preferred temperature is somewhat higher than the Tm of the duplex (in the absence of ligand) under the conditions of the assay. If desired, for the sake of convenience, conditions may be adjusted so that the assay can be carried out at or near room temperature.
At the beginning of the assay, the indicator sequences form a duplex in the presence of the ligand, so fluorescence is at a minimum for the system. (When other detection systems are used, the signal observed will be that in which the first and second groups are in close proximity.) A “competitor” sequence, having no second (e.g. quenching) group, is then added, typically as a duplex with its complementary sequence. The competing sequence tends to remove the ligand from the indicator duplex at concentrations that become lower as the affinity of the competing sequence for the ligand becomes greater. Alternatively, the competing sequence removes the ligand more effectively at concentrations equimolar with the indicator duplex as the affinity of the competing sequence for the ligand becomes greater. As the ligand is removed, the indicator sequences denature to single-stranded form, quenching is no longer effective (in an F/Q system), and fluorescence increases.
Competition Assays: Competition experiments were generally done in […] HEPES, pH 7.5, 0.1 mM EDTA and 50 mM NaCl. The drug concentration used in the competition assays depends upon the affinity of the drug for a given indicator. For the competition experiments shown, the netropsin and distamycin concentrations used were 0.4 μM. The amount of competitor oligo used was varied from 0.2 μM to 1.0 μM. The data shown is from competition experiments using 0.4 μM unlabeled duplex competitors (see Tables III-VI for the sequences of the competitor oligos).
An unlabeled competitor duplex, selected from those whose sequences are given in Table […], was added at a 0.4 μM concentration, and the change in fluorescence was noted.
Changes in fluorescence of the indicator duplex/netropsin mixture on adding each competitor oligonucleotide are given in FIG. 12.

[2] = tested on: 5′-CTTTTTTTTT-3′ (SEQ ID NO: 1) F/Q indicator pair; assay: Fluorescence quenching direct binding assay, A/T rich DNA; conditions: increasing netropsin; tRNA added; room temperature
Protocol: The specific examples described in this section employ fluorescence quenching as the detection system. In these examples, because conditions are adjusted to maintain the oligonucleotides in single-stranded form in the absence of the ligand, the assay starts with the system at a high or maximum level of fluorescence, and fluorescence generally decreases, depending on binding affinity, as the ligand is added.
In the Figure legends, RNA oligonucleotides are denoted by an “r” at the beginning of the sequence, and single stranded controls by “ss” at the end of the sequence. These single stranded sequence, are used alone in control experiments, which thus employ only an “F” strand and no complementary quenching strand. Any quenching of fluorescence that is not due to hybridization can thus be acounted for. Maximum quenching expected on complete hybridization of these oligonucleotides is 85-90%; therefore some signal remains after complete hybridization. […]
According to the general method described above, increasing amounts of netropsin or actinomycin, respectively, were added to mixtures of selected F/Q indicator oligonucleotide pairs, whose sequences are shown in the legends of FIGS. 1 and 3. […] The Figures show the level of fluorescence observed, relative to a control having no added drug, for each indicator pair (or single strand) as the level of added drug was increased. […]

[3] = 5′-XAATTY-3′ competitor series, Table V

| Structure (SMILES) | sequence preference from competitor oligos of Table III (FIG. 6) [1] | 5 bp A/T site bound most strongly / preferred (FIGS. 11, 12) [1] | discrimination among 5 bp A/T binding sites (FIGS. 11, 12) [1] | X and Y combinations that competed most effectively (FIG. 9) [1, 3] | sensitivity to bases at the edge of the AATT site (FIGS. 9 and 10) [1, 3] | preferred 5 bp binding site ([1]; concluded from 5′-XAATTY-3′ series) | binding (decrease in fluorescence, FIG. 3A) [2] |
| --- | --- | --- | --- | --- | --- | --- | --- |
| Cn1cc(NC(=O)c2cc(NC(=O)c3cc(NC=O)cn3C)cn2C)cc1C(=O)NCCC(=N)N [Distamycin, distamycin] | strongly prefer A/T rich DNA | 5′-AATTA-3′ | relatively strong preferences | AA/TT, CA/TG, GA/TC, and TA/TA | much more sensitive | 5′-AATTA-3′ |  |
| Cn1cc(NC(=O)c2cc(NC(=O)CN=C(N)N)cn2C)cc1C(=O)NCCC(=N)N [Netropsin, netropsin] | strongly prefer A/T rich DNA | slight preference for the AAAAA site | considerably less discrimination |  |  |  | strongly prefers |
